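In this assay, cells in 96-well plates receive the compound at five concentrations for 48 hours. Endpoints are linearly interpolated between the surrounding concentrations. At the TGI there is no net growth.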 Where only a bound is given, the exact number is not on record here.

The subject of the first assay is RPMI-8226 leukemia. Nature of the assay: growth of human tumour cells (NCI), 48 h.
`Clc1ccc(CCN(CCc2ccc(Cl)c(Cl)c2)CCN2CCCC2)cc1Cl`: the TGI was 5.38 µM.

As for `Cc1c(-c2ccccc2)cc(O)c2nc3ccccc3n12`, the TGI was > 100 µM.

In the case of `Cc1ccc(C(=O)O)c(/C=C2\Cc3ccc(C)cc3C2=O)c1`, the TGI is 53.3 µM.

In the case of `C=C(CCOC)CCC1CCCCC(CN(C)C)C1=O` (stereo not drawn), the TGI was > 100 µM.

Take `ONC1=Nc2cc(Cl)ccc2C(=S)N2CSCC12` (stereo not drawn): the TGI is > 100 µM.

For the compound `COc1ccc(/C=C2\N=C(N3CCCCC3)NC2=O)cc1`, the TGI was > 100 µM.

For `COc1c(=O)cc2cc[nH]c3cc[nH]c1c23`, the TGI is > 100 µM.

In the case of `CCCCC1(NN=C2CCCCC2)C(=O)N(c2ccccc2)N(c2ccccc2)C1=O`, the TGI was > 100 µM.

`CC(C)NC(=O)OCc1c2c(n(C)c1COC(=O)NC(C)C)-c1cc(Cl)c(Cl)cc1CC2` showed a TGI of 64.8 µM.

On to `CNc1ncccc1Nc1cc(=O)n2c3cccnc3n(C)c2c1`, for which the TGI is > 100 µM.

In the case of `COc1cc2c(cc1O)c(O)cc1c3cc(OC)c(OC)cc3c[n+](C)c21`, the TGI is > 100 µM.

On to `CCOC(=O)c1sc(=S)n(-c2ccc(Cl)cc2)c1-n1cc(-c2ccccc2)c(C#N)c1N`, for which the TGI was > 100 µM.

In the case of `COC1(OC)N=C(N)C2(C#N)C(c3ccccc3)NC3=C(CCC3)C12C#N` (stereo not drawn), the TGI was > 100 µM.

The compound `NC(N)=NS(=O)(=O)c1ccc(NNc2c3ccccc3nc3ccccc23)cc1` gave a TGI of 44.9 µM.

As to `COC(=O)[C@@H]1C[C@H]2OC(=O)CC[C@]2(C)O[C@H]1[C@H]1O[C@@](C)(O)CCC[C@H]1C`, the TGI is > 50 µM.

On to `CC(C)CCNC(=O)c1ccc(CNC(=O)/C=C/c2cccc(Oc3ccccc3)c2)cc1`, for which the TGI is > 100 µM.

As to `COc1cc2c(cc1OCCCCCCCCCCN1C(=O)c3cccc4cccc(c34)C1=O)N=C[C@@H]1CCCN1C2=O`, the TGI amounted to 4 µM.

As to `O=C(NC1=C(Cl)C(=O)c2ccccc2C1=O)c1ccccc1`, the TGI is > 100 µM.

As to `C/C(=N\NS(=O)(=O)c1ccc(C)cc1)c1ccccn1`, the TGI is > 100 µM.

For the compound `Cc1c(N2C(=O)C(Cl)C2/C=C/c2ccccc2)c(=O)n(-c2ccccc2)n1C` (stereo not drawn), the TGI was determined as 34.7 µM.

For the compound `C=CCn1c(N)c(C#N)c(C#N)c1CCC`, the TGI was > 100 µM.

With `C#CCn1c(=O)c(I)cn(/C(=C/C(=O)OCC)C(=O)OCC)c1=O`, the TGI turned out to be 2.33 µM.

Take `COc1ccc(CC2COc3cc(OC)cc(OC)c3C2=O)cc1` (stereo not drawn): the TGI amounted to 40.5 µM.

Compound `O=c1oc2ccccc2c(Nc2ccc3c(c2)Sc2ccccc2O3)c1[N+](=O)[O-]` displayed a TGI of 37.8 µM.

For a further assay, the system named is MOLT-4 leukemia. In words: growth of human tumour cells (NCI), 48 h.
Regarding `Cc1c(-c2ccccc2)cc(O)c2nc3ccccc3n12`, the TGI was > 100 µM.

As for `Cc1ccc(C(=O)O)c(/C=C2\Cc3ccc(C)cc3C2=O)c1`, the TGI was > 100 µM.

`C=C(CCOC)CCC1CCCCC(CN(C)C)C1=O` (stereo not drawn): the TGI is > 100 µM.

For `ONC1=Nc2cc(Cl)ccc2C(=S)N2CSCC12` (stereo not drawn), the TGI was > 100 µM.

`COc1ccc(/C=C2\N=C(N3CCCCC3)NC2=O)cc1`: the TGI is > 100 µM.

Consider `COc1c(=O)cc2cc[nH]c3cc[nH]c1c23`, for which the TGI is > 100 µM.

The compound `CCCCC1(NN=C2CCCCC2)C(=O)N(c2ccccc2)N(c2ccccc2)C1=O` registered a TGI of 66 µM.

Consider `CC(C)NC(=O)OCc1c2c(n(C)c1COC(=O)NC(C)C)-c1cc(Cl)c(Cl)cc1CC2`, for which the TGI was 60.3 µM.

With `CNc1ncccc1Nc1cc(=O)n2c3cccnc3n(C)c2c1`, the TGI was > 100 µM.

In turn, `COc1cc2c(cc1O)c(O)cc1c3cc(OC)c(OC)cc3c[n+](C)c21` came in with a TGI of 40.3 µM.

Consider `CCOC(=O)c1sc(=S)n(-c2ccc(Cl)cc2)c1-n1cc(-c2ccccc2)c(C#N)c1N`, for which the TGI was > 100 µM.

As for `COC1(OC)N=C(N)C2(C#N)C(c3ccccc3)NC3=C(CCC3)C12C#N` (stereo not drawn), the TGI was > 100 µM.

Compound `NC(N)=NS(=O)(=O)c1ccc(NNc2c3ccccc3nc3ccccc23)cc1` registered a TGI of 2.85 µM.

`COC(=O)[C@@H]1C[C@H]2OC(=O)CC[C@]2(C)O[C@H]1[C@H]1O[C@@](C)(O)CCC[C@H]1C`: the TGI is > 50 µM.

Take `CC(C)CCNC(=O)c1ccc(CNC(=O)/C=C/c2cccc(Oc3ccccc3)c2)cc1`: the TGI is > 100 µM.

Turning to `COc1cc2c(cc1OCCCCCCCCCCN1C(=O)c3cccc4cccc(c34)C1=O)N=C[C@@H]1CCCN1C2=O`, the TGI was 5.76 µM.

The compound `O=C(NC1=C(Cl)C(=O)c2ccccc2C1=O)c1ccccc1` showed a TGI of 58.8 µM.

As to `C/C(=N\NS(=O)(=O)c1ccc(C)cc1)c1ccccn1`, the TGI was > 100 µM.

`Cc1c(N2C(=O)C(Cl)C2/C=C/c2ccccc2)c(=O)n(-c2ccccc2)n1C` (stereo not drawn) came in with a TGI of 50 µM.

As for `C=CCn1c(N)c(C#N)c(C#N)c1CCC`, the TGI is > 100 µM.

For the compound `C#CCn1c(=O)c(I)cn(/C(=C/C(=O)OCC)C(=O)OCC)c1=O`, the TGI came to 1.9 µM.

For the compound `COc1ccc(CC2COc3cc(OC)cc(OC)c3C2=O)cc1` (stereo not drawn), the TGI was > 100 µM.

The test system of the next assay is RXF 393 renal. In words: growth of human tumour cells (NCI), 48 h.
Take `Clc1ccc(CCN(CCc2ccc(Cl)c(Cl)c2)CCN2CCCC2)cc1Cl`: the TGI was found to be 3.33 µM.

In the case of `Cc1c(-c2ccccc2)cc(O)c2nc3ccccc3n12`, the TGI was > 100 µM.

On to `Cc1ccc(C(=O)O)c(/C=C2\Cc3ccc(C)cc3C2=O)c1`, for which the TGI is > 100 µM.

For `C=C(CCOC)CCC1CCCCC(CN(C)C)C1=O` (stereo not drawn), the TGI was > 100 µM.

For `ONC1=Nc2cc(Cl)ccc2C(=S)N2CSCC12` (stereo not drawn), the TGI was > 100 µM.

Take `COc1ccc(/C=C2\N=C(N3CCCCC3)NC2=O)cc1`: the TGI was > 100 µM.

As to `COc1c(=O)cc2cc[nH]c3cc[nH]c1c23`, the TGI was > 100 µM.

As for `CCCCC1(NN=C2CCCCC2)C(=O)N(c2ccccc2)N(c2ccccc2)C1=O`, the TGI was > 100 µM.

Regarding `CC(C)NC(=O)OCc1c2c(n(C)c1COC(=O)NC(C)C)-c1cc(Cl)c(Cl)cc1CC2`, the TGI was determined as 94.8 µM.

Take `CNc1ncccc1Nc1cc(=O)n2c3cccnc3n(C)c2c1`: the TGI amounted to 80.8 µM.

For the compound `COc1cc2c(cc1O)c(O)cc1c3cc(OC)c(OC)cc3c[n+](C)c21`, the TGI is > 100 µM.

Consider `CCOC(=O)c1sc(=S)n(-c2ccc(Cl)cc2)c1-n1cc(-c2ccccc2)c(C#N)c1N`, for which the TGI is 64.3 µM.

In the case of `COC1(OC)N=C(N)C2(C#N)C(c3ccccc3)NC3=C(CCC3)C12C#N` (stereo not drawn), the TGI was > 100 µM.

In turn, `NC(N)=NS(=O)(=O)c1ccc(NNc2c3ccccc3nc3ccccc23)cc1` had a TGI of 36 µM.

For the compound `COC(=O)[C@@H]1C[C@H]2OC(=O)CC[C@]2(C)O[C@H]1[C@H]1O[C@@](C)(O)CCC[C@H]1C`, the TGI was > 50 µM.

Compound `CC(C)CCNC(=O)c1ccc(CNC(=O)/C=C/c2cccc(Oc3ccccc3)c2)cc1` gave a TGI of 52 µM.

For the compound `COc1cc2c(cc1OCCCCCCCCCCN1C(=O)c3cccc4cccc(c34)C1=O)N=C[C@@H]1CCCN1C2=O`, the TGI was 10.1 µM.

In the case of `O=C(NC1=C(Cl)C(=O)c2ccccc2C1=O)c1ccccc1`, the TGI is 34 µM.

As for `C/C(=N\NS(=O)(=O)c1ccc(C)cc1)c1ccccn1`, the TGI is > 100 µM.

On to `Cc1c(N2C(=O)C(Cl)C2/C=C/c2ccccc2)c(=O)n(-c2ccccc2)n1C` (stereo not drawn), for which the TGI worked out at 79.3 µM.

Regarding `C=CCn1c(N)c(C#N)c(C#N)c1CCC`, the TGI is > 100 µM.

Compound `C#CCn1c(=O)c(I)cn(/C(=C/C(=O)OCC)C(=O)OCC)c1=O` registered a TGI of 12.2 µM.
